Assay results taken from ChEMBL document CHEMBL5506059, “Cyanomethylquinolones as a New Class of Potential Multitargeting Broad-Spectrum Antibacterial Agents” (J Med Chem, 2024).
In brackets after ≈: the same amount, converted by molar mass. Activity calls are given as the source filed them. No cut-off for these calls is given here.

Assays:
Klebsiella pneumoniae = experiment: Antibacterial activity against Klebsiella pneumoniae clinical isolate assessed as inhibition of bacterial growth incubated for 24 hrs; assay type: functional
Acinetobacter baumannii = experiment: Antibacterial activity against Acinetobacter baumannii clinical isolate assessed as inhibition of bacterial growth incubated for 24 hrs; assay type: functional
Pseudomonas aeruginosa [1] = experiment: Antibacterial activity against Pseudomonas aeruginosa clinical isolate assessed as inhibition of bacterial growth incubated for 24 hrs; assay type: functional
Escherichia coli [2] = experiment: Antibacterial activity against Escherichia coli ATCC 25922 assessed as inhibition of bacterial growth incubated for 24 hrs; assay type: functional
Escherichia coli [3] = experiment: Antibacterial activity against Escherichia coli clinical isolate assessed as inhibition of bacterial growth incubated for 24 hrs; assay type: functional
Staphylococcus aureus [4] = experiment: Antibacterial activity against Staphylococcus aureus ATCC 25923 assessed as inhibition of bacterial growth incubated for 24 hrs; assay type: functional
Pseudomonas aeruginosa [5] = experiment: Antibacterial activity against Pseudomonas aeruginosa ATCC 27853 assessed as inhibition of bacterial growth incubated for 24 hrs; assay type: functional
Staphylococcus aureus [6] = experiment: Antibacterial activity against methicillin resistant Staphylococcus aureus clinical isolate assessed as inhibition of bacterial growth incubated for 24 hrs; assay type: functional
Staphylococcus aureus [7] = experiment: Antibacterial activity against Staphylococcus aureus clinical isolate assessed as inhibition of bacterial growth incubated for 24 hrs; assay type: functional
Staphylococcus aureus [8] = experiment: Antibacterial activity against Staphylococcus aureus ATCC 29213 assessed as inhibition of bacterial growth incubated for 24 hrs; assay type: functional
Enterococcus faecalis [9] = experiment: Antibacterial activity against Enterococcus faecalis clinical isolate assessed as inhibition of bacterial growth incubated for 24 hrs; assay type: functional
Erythrocyte = experiment: Hemolytic activity in human Red blood cells assessed as concentration required for 5% hemolysis measured after 1.5 hrs by absorbance based assay; assay type: toxicity, cell-based
Enterococcus faecium = experiment: Antibacterial activity against Enterococcus faecium ATCC 19434 assessed as inhibition of bacterial growth incubated for 24 hrs; assay type: functional
Staphylococcus aureus [10] = experiment: Antibacterial activity against Staphylococcus aureus ATCC 12600 assessed as inhibition of bacterial growth incubated for 24 hrs; assay type: functional
[11] = tested on: Staphylococcus epidermidis; experiment: Antibacterial activity against Staphylococcus epidermidis ATCC 12228 assessed as inhibition of bacterial growth incubated for 24 hrs; assay type: functional
Enterococcus faecalis [12] = experiment: Antibacterial activity against vancomycin-resistant Enterococcus faecalis clinical isolate p1-2007225053 assessed as inhibition of bacterial growth incubated for 24 hrs; assay type: functional
Staphylococcus aureus [13] = experiment: Antibacterial activity against Staphylococcus aureus CMCC(B)26001 assessed as inhibition of bacterial growth incubated for 24 hrs; assay type: functional
Staphylococcus aureus [14] = experiment: Antibacterial activity against Staphylococcus aureus CMCC(B)26003 assessed as inhibition of bacterial growth incubated for 24 hrs; assay type: functional
Streptococcus pneumoniae = experiment: Antibacterial activity against Streptococcus pneumoniae ATCC 6305 assessed as inhibition of bacterial growth incubated for 24 hrs; assay type: functional
Staphylococcus aureus [15] = experiment: Antibacterial activity against Staphylococcus aureus ATCC 6538 assessed as inhibition of bacterial growth incubated for 24 hrs; assay type: functional
Staphylococcus aureus [16] = experiment: Antibacterial activity against methicillin-resistant Staphylococcus aureus ATCC 43300 assessed as inhibition of bacterial growth incubated for 24 hrs; assay type: functional
Enterococcus faecalis [17] = experiment: Antibacterial activity against vancomycin-resistant Enterococcus faecalis clinical isolate p1-2007226001 assessed as inhibition of bacterial growth incubated for 24 hrs; assay type: functional
Streptococcus pyogenes = experiment: Antibacterial activity against Streptococcus pyogenes ATCC 19615 assessed as inhibition of bacterial growth incubated for 24 hrs; assay type: functional
Pseudomonas aeruginosa [18] = experiment: Resistance development in ciprofloxacin-treated Pseudomonas aeruginosa ATCC 27853 assessed as increase in MIC measured after 15th generation; assay type: functional, organism-based
Staphylococcus aureus [19] = experiment: Resistance development in ciprofloxacin-treated Staphylococcus aureus ATCC 6538 assessed as increase in MIC measured after 15th generation; assay type: functional, organism-based
Staphylococcus aureus [20] = experiment: Resistance development in ciprofloxacin-treated methicillin resistant Staphylococcus aureus assessed as increase in MIC measured after 15th generation; assay type: functional, organism-based
Pseudomonas aeruginosa [21] = experiment: Resistance development in ciprofloxacin-treated Pseudomonas aeruginosa assessed as increase in MIC measured after 15th generation; assay type: functional, organism-based

SMILES | MIC (Klebsiella pneumoniae) | MIC (Acinetobacter baumannii) | MIC (Pseudomonas aeruginosa [1]) | MIC (Escherichia coli [2]) | MIC (Escherichia coli [3]) | MIC (Staphylococcus aureus [4]) | MIC (Pseudomonas aeruginosa [5]) | MIC (Staphylococcus aureus [6]) | MIC (Staphylococcus aureus [7]) | MIC (Staphylococcus aureus [8]) | MIC (Enterococcus faecalis [9]) | also measured
N#CCc1cc2c(cc1F)c(=O)c(C(=O)O)cn2Cc1ccc(Cl)cc1Cl | 16 µg/mL (≈ 39.5 µM) | 8 µg/mL (≈ 19.7 µM) | 0.5 µg/mL (≈ 1.23 µM) | 1 µg/mL (≈ 2.47 µM) | 1 µg/mL (≈ 2.47 µM) | 0.5 µg/mL (≈ 1.23 µM) | 32 µg/mL (≈ 79 µM) | 256 µg/mL (≈ 632 µM) | 256 µg/mL (≈ 632 µM) | 2 µg/mL (≈ 4.94 µM) | 256 µg/mL (≈ 632 µM) | –
N#CCc1cc2c(cc1F)c(=O)c(C(=O)O)cn2CC1CCCCC1 | 256 µg/mL (≈ 748 µM) | 256 µg/mL (≈ 748 µM) | 16 µg/mL (≈ 46.7 µM) | 256 µg/mL (≈ 748 µM) | 256 µg/mL (≈ 748 µM) | 256 µg/mL (≈ 748 µM) | 256 µg/mL (≈ 748 µM) | 256 µg/mL (≈ 748 µM) | 256 µg/mL (≈ 748 µM) | 256 µg/mL (≈ 748 µM) | 256 µg/mL (≈ 748 µM) | –
C=CCn1cc(C(=O)O)c(=O)c2cc(F)c(CC#N)cc21 | 1 µg/mL (≈ 3.49 µM) | 8 µg/mL (≈ 27.9 µM) | 0.5 µg/mL (≈ 1.75 µM) | 0.5 µg/mL (≈ 1.75 µM) | 256 µg/mL (≈ 894 µM) | 0.5 µg/mL (≈ 1.75 µM) | 4 µg/mL (≈ 14 µM) | 0.5 µg/mL (≈ 1.75 µM) | 2 µg/mL (≈ 6.99 µM) | 4 µg/mL (≈ 14 µM) | 16 µg/mL (≈ 55.9 µM) | –
N#CCc1cc2c(cc1F)c(=O)c(C(=O)O)cn2CC1CCCC1 | 256 µg/mL (≈ 780 µM) | 128 µg/mL (≈ 390 µM) | 256 µg/mL (≈ 780 µM) | 256 µg/mL (≈ 780 µM) | 32 µg/mL (≈ 97.5 µM) | 64 µg/mL (≈ 195 µM) | 128 µg/mL (≈ 390 µM) | 256 µg/mL (≈ 780 µM) | 128 µg/mL (≈ 390 µM) | 256 µg/mL (≈ 780 µM) | 256 µg/mL (≈ 780 µM) | –
N#CCc1cc2c(cc1F)c(=O)c(C(=O)O)cn2CC1CCC1 | 256 µg/mL (≈ 814 µM) | 256 µg/mL (≈ 814 µM) | 256 µg/mL (≈ 814 µM) | 128 µg/mL (≈ 407 µM) | 128 µg/mL (≈ 407 µM) | 0.5 µg/mL (≈ 1.59 µM) | 128 µg/mL (≈ 407 µM) | 128 µg/mL (≈ 407 µM) | 64 µg/mL (≈ 204 µM) | 256 µg/mL (≈ 814 µM) | 32 µg/mL (≈ 102 µM) | –
N#CCc1cc2c(cc1F)c(=O)c(C(=O)O)cn2Cc1ccc(F)cc1F | 8 µg/mL (≈ 21.5 µM) | 4 µg/mL (≈ 10.7 µM) | 0.5 µg/mL (≈ 1.34 µM) | 0.25 µg/mL (≈ 0.671 µM) | 0.5 µg/mL (≈ 1.34 µM) | 0.25 µg/mL (≈ 0.671 µM) | 0.5 µg/mL (≈ 1.34 µM) | 256 µg/mL (≈ 688 µM) | 256 µg/mL (≈ 688 µM) | 0.5 µg/mL (≈ 1.34 µM) | 256 µg/mL (≈ 688 µM) | HC5 (Erythrocyte): 60 µg/mL; MIC (Enterococcus faecium): 128 µg/mL (≈ 344 µM); MIC (Staphylococcus aureus [10]): 64 µg/mL (≈ 172 µM); MIC [11]: 64 µg/mL (≈ 172 µM); MIC (Enterococcus faecalis [12]): 64 µg/mL (≈ 172 µM); MIC (Staphylococcus aureus [13]): 2 µg/mL (≈ 5.37 µM); MIC (Staphylococcus aureus [14]): 2 µg/mL (≈ 5.37 µM); MIC (Streptococcus pneumoniae): 32 µg/mL (≈ 86 µM); MIC (Staphylococcus aureus [15]): 32 µg/mL (≈ 86 µM); MIC (Staphylococcus aureus [16]): 128 µg/mL (≈ 344 µM); MIC (Enterococcus faecalis [17]): 64 µg/mL (≈ 172 µM); MIC (Streptococcus pyogenes): 0.25 µg/mL (≈ 0.671 µM)
CCn1cc(C(=O)O)c(=O)c2cc(F)c(N3CCNCC3)cc21 [NORFLOXACIN] | 8 µg/mL (≈ 25.1 µM) | 2 µg/mL (≈ 6.26 µM) | 8 µg/mL (≈ 25.1 µM) | 4 µg/mL (≈ 12.5 µM) | 4 µg/mL (≈ 12.5 µM) | 8 µg/mL (≈ 25.1 µM) | 8 µg/mL (≈ 25.1 µM) | 8 µg/mL (≈ 25.1 µM) | 8 µg/mL (≈ 25.1 µM) | 4 µg/mL (≈ 12.5 µM) | 8 µg/mL (≈ 25.1 µM) | Activity (Pseudomonas aeruginosa [18]): Active; Activity (Staphylococcus aureus [19]): Active; MIC (Enterococcus faecium): 4 µg/mL (≈ 12.5 µM); MIC (Staphylococcus aureus [10]): 2 µg/mL (≈ 6.26 µM); MIC [11]: 1 µg/mL (≈ 3.13 µM); MIC (Enterococcus faecalis [12]): 1 µg/mL (≈ 3.13 µM); MIC (Staphylococcus aureus [13]): 0.25 µg/mL (≈ 0.783 µM); MIC (Staphylococcus aureus [14]): 0.5 µg/mL (≈ 1.57 µM); Activity (Staphylococcus aureus [20]): Active; MIC (Streptococcus pneumoniae): 0.5 µg/mL (≈ 1.57 µM); MIC (Staphylococcus aureus [15]): 1 µg/mL (≈ 3.13 µM); MIC (Staphylococcus aureus [16]): 4 µg/mL (≈ 12.5 µM); MIC (Enterococcus faecalis [17]): 8 µg/mL (≈ 25.1 µM); MIC (Streptococcus pyogenes): 32 µg/mL (≈ 100 µM); Activity (Pseudomonas aeruginosa [21]): Active
